Here are results for four compounds from PMC2174406 (Environmental Health Perspectives, 2007).

The target of one assay is transthyretin (TTR) (Homo sapiens, UniProt P02766). Put plainly: […]T4 displacement. It is filed as binding. The settings on record: cited from earlier work.
The next assay concerns the target T1, thyroid peroxidase (TPO) (Homo sapiens, UniProt P07202).
T1 sequence (P07202 19-933): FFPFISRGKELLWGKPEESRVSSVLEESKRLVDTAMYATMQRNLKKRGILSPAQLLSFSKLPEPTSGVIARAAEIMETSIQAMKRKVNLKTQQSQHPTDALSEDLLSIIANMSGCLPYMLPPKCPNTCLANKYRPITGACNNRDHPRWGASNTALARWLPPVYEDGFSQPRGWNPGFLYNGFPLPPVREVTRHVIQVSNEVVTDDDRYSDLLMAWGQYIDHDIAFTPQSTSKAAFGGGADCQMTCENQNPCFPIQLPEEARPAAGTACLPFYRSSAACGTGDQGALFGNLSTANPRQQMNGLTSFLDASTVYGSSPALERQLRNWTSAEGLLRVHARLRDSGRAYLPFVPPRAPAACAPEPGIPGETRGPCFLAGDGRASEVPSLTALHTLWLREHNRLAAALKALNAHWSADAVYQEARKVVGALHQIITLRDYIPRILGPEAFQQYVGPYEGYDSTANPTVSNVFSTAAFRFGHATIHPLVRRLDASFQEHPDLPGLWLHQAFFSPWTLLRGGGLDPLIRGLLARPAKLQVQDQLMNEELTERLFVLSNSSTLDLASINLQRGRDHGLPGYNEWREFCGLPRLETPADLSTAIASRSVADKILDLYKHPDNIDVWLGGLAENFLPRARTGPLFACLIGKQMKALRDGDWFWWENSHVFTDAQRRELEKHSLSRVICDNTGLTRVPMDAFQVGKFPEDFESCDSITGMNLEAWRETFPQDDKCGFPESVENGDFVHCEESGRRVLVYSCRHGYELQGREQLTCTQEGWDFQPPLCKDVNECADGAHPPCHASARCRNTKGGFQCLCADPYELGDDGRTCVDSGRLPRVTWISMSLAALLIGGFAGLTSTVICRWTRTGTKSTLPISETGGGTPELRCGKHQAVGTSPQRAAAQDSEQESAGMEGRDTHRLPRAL
Description: guaiacol oxidation assay with digitonin-extracted recombinant TPO. In kind it is cell-based.

On to `COc1cc2c(=O)c(-c3ccc(O)cc3)coc2cc1O` [glycitein], for which, on transthyretin (TTR), the IC50 is 200 nM.

In the case of `O=c1c(-c2ccc(O)cc2)coc2cc(O)cc(O)c12` [genistein], the IC50 at transthyretin (TTR) was 70 nM.

Regarding `CC(C)(c1ccc(O)cc1)c1ccc(O)cc1` [bisphenol A], the IC50 result on thyroid peroxidase (TPO) is “the industrial chemicals 4-NP and BPA also inhibited TPO”.

For `O=c1c(-c2ccc(O)cc2)coc2cc(O)ccc12` [daidzein], the IC50 at transthyretin (TTR) is 1800 nM.
